Molecular target: T1, human liver GK (Homo sapiens, UniProt P35557)
T1 construct: GST (glutathione S-transferase) (N); made in house; host or cells: E. coli
T1 sequence (P35557 1-466 isoform P35557-2): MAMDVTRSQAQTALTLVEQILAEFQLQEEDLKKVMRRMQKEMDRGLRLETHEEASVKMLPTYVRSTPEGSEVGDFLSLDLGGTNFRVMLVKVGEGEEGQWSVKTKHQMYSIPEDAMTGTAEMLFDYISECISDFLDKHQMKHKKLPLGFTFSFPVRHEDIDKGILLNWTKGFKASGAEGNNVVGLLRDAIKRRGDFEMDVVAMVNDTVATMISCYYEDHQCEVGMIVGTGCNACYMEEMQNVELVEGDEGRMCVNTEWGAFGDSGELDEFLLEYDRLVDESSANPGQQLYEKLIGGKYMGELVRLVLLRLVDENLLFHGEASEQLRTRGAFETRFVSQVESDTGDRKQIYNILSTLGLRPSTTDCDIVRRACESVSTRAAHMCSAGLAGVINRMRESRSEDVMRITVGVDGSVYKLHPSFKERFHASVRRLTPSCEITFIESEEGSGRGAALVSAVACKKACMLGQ
Experiment: GK activation test
Format: biochemical
Settings: test compound concentration needed to activate 50% of maximum activation ability; 4 mM 14C-labeled glucose, 2 mM ATP, room temperature, 20 minutes
How it was run: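 GST-tagged human liver GK from E. coli (0.24 μg/well) with 4 mM 14C-glucose, 2 mM ATP in Hepes-KOH pH 7.1, KCl, MgCl2, DTT, 1% DMSO, 20 min room temperature. Labeled glucose 6-phosphate captured on anion resin, eluted and counted. EC50 = concentration giving half of maximal activation.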

| EC50 [nM] | Compound |
| --- | --- |
| 10 to 500 | O=c1[nH]c(/C(=C/C2CCCC2)c2ccc(S(=O)(=O)C3CC3)cc2)ccc1CO [Example 1-30, 6-{(E)-2-Cyclopentyl-1-[4-(cyclopropylsulfonyl)phenyl]ethenyl}-3-(hydroxymethyl)pyridin-2(1H)-one] |
| 500 to 3000 | Cc1cc(C(C[C@H]2CCC(=O)N2)c2ccc(C3CC3)c(=O)[nH]2)ccc1F (single isomer, unassigned) [Example 4-223] |
| 500 to 3000 | CC(C)(C)c1ccc(/C(=C\[C@H]2CCC(=O)N2)c2ccc(C#N)c(=O)[nH]2)cc1 [Example 4-202, 6-{(E)-1-(4-tert-Butylphenyl)-2-[(2R)-5-oxopyrrolidin-2-yl]ethenyl}-2-oxo-1,2-dihydropyridine-3-carbonitrile] |
| 10 to 500 | CC(C)(C)c1ccc(/C(=C\[C@H]2CCC(=O)N2)c2ccc(Cl)c(=O)[nH]2)cc1Cl [Example 4-71, 6-{(E)-1-(4-tert-Butyl-3-chlorophenyl)-2-[(2R)-5-oxopyrrolidin-2-yl]ethenyl}-3-chloropyridin-2(1H)-one] |
| 500 to 3000 | CN(C)CCCCc1ccc(/C(=C/[C@H]2CCC(=O)N2)c2ccc(C(C)(C)C)cc2)[nH]c1=O [Example 4-191, 6-{(E)-1-(4-tert-Butylphenyl)-2-[(2R)-5-oxopyrrolidin-2-yl]ethenyl}-3-[4-(dimethylamino)butyl]pyridin-2(1H)-one] |
| 500 to 3000 | O=C1CC[C@H](/C=C(\c2ccc(OCc3ccccc3)cc2)c2ccc(Cl)c(=O)[nH]2)N1 [Example 4-154, 6-{(E)-1-[4-(Benzyloxy)phenyl]-2-[(2R)-5-oxopyrrolidin-2-yl]ethenyl}-3-chloropyridin-2(1H)-one] |
| 10 to 500 | CSc1ccc(/C(=C\[C@H]2CCC(=O)C2)c2ccc(C(C)C)c(=O)[nH]2)cc1 [Example 1-64, 6-{(E)-1-[4-(Methylsulfanyl)phenyl]-2-[(1S)-3-oxocyclopentyl]ethenyl}-3-(propan-2-yl)pyridin-2(1H)-one] |
| 500 to 3000 | CCN(CC)CCCS(=O)(=O)c1ccc(/C(=C\C2CCCC2)c2ccc(C)c(=O)[nH]2)cc1Cl [Example 1-25, 6-[(E)-1-(3-Chloro-4-{[3-(diethylamino)propyl]sulfonyl}phenyl)-2-cyclopentylethenyl]-3-methylpyridin-2(1H)-one] |
| 500 to 3000 | COCCCCc1ccc(/C(=C\[C@H]2CCC(=O)N2)c2ccc(Cl)c(=O)[nH]2)cc1 [Example 4-73, 3-Chloro-6-{(E)-1-[4-(4-methoxybutyl)phenyl]-2-[(2R)-5-oxopyrrolidin-2-yl]ethenyl}pyridin-2(1H)-one] |
| 500 to 3000 | N#Cc1ccc(/C(=C\[C@H]2CCC(=O)N2)c2ccc(C3CC3)c(=O)[nH]2)cc1 [Example 4-285, 4-{(E)-1-(5-Cyclopropyl-6-oxo-1,6-dihydropyridin-2-yl)-2-[(2R)-5-oxopyrrolidin-2-yl]ethenyl}benzonitrile] |
| 500 to 3000 | COc1cc(C(C)(C)C)ccc1/C(=C\[C@H]1CCC(=O)N1)c1ccc(Cl)c(=O)[nH]1 [Example 4-148, 6-{(E)-1-(4-tert-Butyl-2-methoxyphenyl)-2-[(2R)-5-oxopyrrolidin-2-yl]ethenyl}-3-chloropyridin-2(1H)-one] |
| 500 to 3000 | Cc1ccc(Oc2ccc(/C(=C/[C@H]3CCC(=O)N3)c3ccc(C(C)(C)C)cc3)[nH]c2=O)cc1 [Example 4-187, 6-{(E)-1-(4-tert-Butylphenyl)-2-[(2R)-5-oxopyrrolidin-2-yl]ethenyl}-3-(4-methylphenoxy)pyridin-2(1H)-one] |
| 500 to 3000 | CSc1ccc(C(CC2CCCC2)c2ccc(C)c(=O)[nH]2)cc1Cl (centres unmarked) [Example 2-4, 6-{1-[3-Chloro-4-(methylsulfanyl)phenyl]-2-cyclopentylethyl}-3-methylpyridin-2(1H)-one] |
| 10 to 500 | O=C1CC[C@H](/C=C(\c2ccc(C(F)(F)F)c(Cl)c2)c2ccc(C3CC3)c(=O)[nH]2)N1 [Example 4-103, 6-{(E)-1-[3-Chloro-4-(trifluoromethyl)phenyl]-2-[(2R)-5-oxopyrrolidin-2-yl]ethenyl}-3-cyclopropylpyridin-2(1H)-one] |
| 500 to 3000 | O=C1OCCN1C/C=C(\c1ccc(S(=O)(=O)C2CC2)cc1)c1ccc(Cl)c(=O)[nH]1 [Example 6-21, 3-Chloro-6-[(1E)-1-[4-(cyclopropylsulfonyl)phenyl]-3-(2-oxo-1,3-oxazolidin-3-yl)prop-1-en-1-yl]pyridin-2(1H)-one] |
| 3000 to 10000 | CC(C)(C)c1ccc(/C(=C\C(=O)N2CCCC2)c2ccc(Cl)c(=O)[nH]2)cc1 [Example 6-15, 6-[(1E)-1-(4-tert-Butylphenyl)-3-oxo-3-(pyrrolidin-1-yl)prop-1-en-1-yl]-3-chloropyridin-2(1H)-one] |
| 10 to 500 | CC(C)Oc1ccc(/C(=C\[C@H]2CCC(=O)N2)c2ccc(C3CC3)c(=O)[nH]2)cc1F [Example 4-275, 3-Cyclopropyl-6-{(E)-1-[3-fluoro-4-(propan-2-yloxy)phenyl]-2-[(2R)-5-oxopyrrolidin-2-yl]ethenyl}pyridin-2(1H)-one] |
| 500 to 3000 | Cc1ccc(/C(=C\[C@H]2CCC(=O)N2)c2ccc(Cl)c(=O)[nH]2)cc1C [Example 4-23, 3-Chloro-6-{(E)-1-(3,4-dimethylphenyl)-2-[(2R)-5-oxopyrrolidin-2-yl]ethenyl}pyridin-2(1H)-one] |
| 500 to 3000 | COCCCc1ccc(C(C[C@H]2CCC(=O)N2)c2ccc(Cl)c(=O)[nH]2)cc1 (single isomer, unassigned) [Example 4-338] |
| 10 to 500 | CCSc1ccc(/C(=C\C2CCCC2)c2ccc(C)c(=O)[nH]2)cc1 [Example 1-9, 6-{(E)-2-Cyclopentyl-1-[4-(ethylsulfanyl)phenyl]ethenyl}-3-methylpyridin-2(1H)-one] |
| 500 to 3000 | O=C1CC[C@H](CC(c2ccc(Cl)cc2)c2ccc(C3CC3)c(=O)[nH]2)N1 (single isomer, unassigned) [Example 4-252] |
| 3000 to 10000 | Cc1ccc(/C(=C/C2(CO)CC2)c2ccc(S(=O)(=O)C3CC3)cc2)[nH]c1=O [Example 1-100, 6-{(E)-1-[4-(Cyclopropylsulfonyl)phenyl]-2-[1-(hydroxymethyl)cyclopropyl]ethenyl}-3-methylpyridin-2(1H)-one] |
| 500 to 3000 | CC1(C)CCc2cc(/C(=C\[C@H]3CCC(=O)N3)c3ccc(Cl)c(=O)[nH]3)ccc2O1 [Example 4-263, 3-Chloro-6-{(E)-1-(2,2-dimethyl-3,4-dihydro-2H-chromen-6-yl)-2-[(2R)-5-oxopyrrolidin-2-yl]ethenyl}pyridin-2(1H)-one] |
| 3000 to 10000 | O=C1CC[C@H](/C=C(\c2ccc(C(F)(F)F)cc2)c2ccc(OCCCO)c(=O)[nH]2)N1 [Example 4-170, 3-(3-Hydroxypropoxy)-6-{(E)-2-[(2R)-5-oxopyrrolidin-2-yl]-1-[4-(trifluoromethyl)phenyl]ethenyl}pyridin-2(1H)-one] |
| 500 to 3000 | CSc1ccc(/C(=C\CC2CCOC2)c2ccc(C3CC3)c(=O)[nH]2)cc1 (centres unmarked) [Example 1-49, 3-Cyclopropyl-6-{(1E)-1-[4-(methylsulfanyl)phenyl]-3-(tetrahydrofuran-3-yl)prop-1-en-1-yl}pyridin-2(1H)-one] |
| 500 to 3000 | CCN(CC)CCCOc1ccc(/C(=C\[C@H]2CCC(O)C2)c2ccc(C3CC3)c(=O)[nH]2)cc1Cl (stereo partly drawn) [Example 1-87, 6-{(E)-1-{3-Chloro-4-[3-(diethylamino)propoxy]phenyl}-2-[(1S)-3-hydroxycyclopentyl]ethenyl}-3-cyclopropylpyridin-2(1H)-one] |

From US8822503B2, “2-pyridone compounds” (Taisho Pharmaceutical Co., Ltd, priority 2009, dated 2014)
